One data set has as its target Cholinesterase (Homo sapiens, UniProt P06276). In words: Non-competitive inhibition of human BChE.
The subject of data set [1] is PC-12. In words: Cytotoxicity against rat PC12 cells assessed as survival rate at 100 uM incubated for 24 hrs by MTT assay relative to control. It counts as functional. The settings on record: read-out: Survival. A general note: Formazan colour is commonly taken as a measure of viable cells.
Data set [2] is described as follows: Acute toxicity in ICR mouse assessed as animal death at 1 g/kg, IG. The conditions noted are these: in vivo, po, 1000 mg/kg.
Data set [3] has as its system PC-12. The experiment in a line: Neuroprotective activity in rat PC12 cells assessed as cell viability pretreated for 2 hrs followed by H2O2 addition measured after 24 hrs by MTT assay. The format is functional, cell-based. The settings on record: time 26.0 hrs.
The next data set relates to SH-SY5Y. The experiment in a line: Neuroprotective activity against amyloid beta (1 to 42)-induced neuronal death in human SH-SY5Y cells assessed as cell viability pretreated for 1 hr followed by amyloid beta (1 to 42) addition measured after 24 hrs by MTT assay. The format is functional, cell-based. The conditions noted are these: dose 1-10 µM, time 25.0 hrs.
The next data set deals with HT-22. In words: Neuroprotective activity against glutamate-induced excitotoxicity in mouse HT-22 cells assessed as cell viability at 1 to 10 uM pretreated for 1 hr followed by glutamate addition measured after 24 hrs by MTT assay. The settings on record: dose 1-10 µM, time 25.0 hrs. It counts as functional, cell-based.
A short description of data set [4]: Metabolic stability in human liver microsomes assessed as compound metabolism at 2 uM measured for 60 mins by LC-MS/MS analysis. It counts as ADME, Microsome. The conditions noted are these: read-out: Drug metabolism. In general terms: Liver microsomes are a subcellular fraction often used to study metabolism.
In a further data set the target is hERG (KCNH2) (Homo sapiens, UniProt Q12809). In words: Inhibition of hERG at 10 uM by manual patch clamp assay relative to control. It counts as toxicity.
hERG (KCNH2), sequence (Q12809 whole entry): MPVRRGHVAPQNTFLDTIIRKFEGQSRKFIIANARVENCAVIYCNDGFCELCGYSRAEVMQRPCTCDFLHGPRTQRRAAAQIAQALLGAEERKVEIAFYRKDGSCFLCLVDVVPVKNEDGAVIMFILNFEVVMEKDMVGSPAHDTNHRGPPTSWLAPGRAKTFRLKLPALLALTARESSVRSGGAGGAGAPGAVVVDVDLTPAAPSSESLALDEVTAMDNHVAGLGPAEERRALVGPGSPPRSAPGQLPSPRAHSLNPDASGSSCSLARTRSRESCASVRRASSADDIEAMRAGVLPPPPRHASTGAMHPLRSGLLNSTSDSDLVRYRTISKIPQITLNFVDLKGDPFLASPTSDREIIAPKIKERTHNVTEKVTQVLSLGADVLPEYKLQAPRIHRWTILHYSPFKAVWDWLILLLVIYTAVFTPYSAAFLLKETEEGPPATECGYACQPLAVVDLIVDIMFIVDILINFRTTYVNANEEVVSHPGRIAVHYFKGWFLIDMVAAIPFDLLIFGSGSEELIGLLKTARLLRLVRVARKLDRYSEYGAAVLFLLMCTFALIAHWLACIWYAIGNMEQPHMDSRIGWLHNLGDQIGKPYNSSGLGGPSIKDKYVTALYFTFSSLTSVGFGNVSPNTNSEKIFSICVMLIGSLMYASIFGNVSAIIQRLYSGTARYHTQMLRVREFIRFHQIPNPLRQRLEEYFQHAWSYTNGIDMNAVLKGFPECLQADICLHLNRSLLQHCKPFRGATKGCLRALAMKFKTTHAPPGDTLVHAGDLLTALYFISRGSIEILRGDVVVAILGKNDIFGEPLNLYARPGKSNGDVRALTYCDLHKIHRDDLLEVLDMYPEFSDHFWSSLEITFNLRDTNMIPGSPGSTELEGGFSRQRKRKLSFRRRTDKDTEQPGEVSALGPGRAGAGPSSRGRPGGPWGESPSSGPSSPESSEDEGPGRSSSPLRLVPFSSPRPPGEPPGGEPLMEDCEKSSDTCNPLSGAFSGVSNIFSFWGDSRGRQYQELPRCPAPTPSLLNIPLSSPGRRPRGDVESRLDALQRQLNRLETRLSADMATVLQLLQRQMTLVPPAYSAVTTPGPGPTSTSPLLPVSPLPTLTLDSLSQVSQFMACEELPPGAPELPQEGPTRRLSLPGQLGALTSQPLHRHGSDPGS
The nature of data set [5]: AUC (0 to t) in Sprague-Dawley rat at 10 mg/kg, po measured for 1 to 1440 mins by LC-MS/MS analysis. The format is ADME, organism-based. The settings on record: in vivo, time 1-1440 min.
Data set [6] is described as follows: Half life in Sprague-Dawley rat at 10 mg/kg, po measured for 1 to 1440 mins by LC-MS/MS analysis. It counts as ADME, organism-based. The conditions noted are these: in vivo, time 1-1440 min.
A short description of data set [7]: Oral bioavailability in Sprague-Dawley rat at 10 mg/kg measured for 1 to 1440 mins by LC-MS/MS analysis. It counts as ADME, organism-based. The conditions noted are these: in vivo, time 1-1440 min.
Data set [8] is described as follows: Half life in Sprague-Dawley rat at 10 mg/kg, iv measured for 1 to 1440 mins by LC-MS/MS analysis. The conditions noted are these: in vivo, time 1-1440 min. The format is ADME, organism-based.
Data set [9] is described as follows: Tmax in Sprague-Dawley rat at 10 mg/kg, iv measured for 1 to 1440 mins by LC-MS/MS analysis. The settings on record: in vivo, time 1-1440 min. It counts as ADME, organism-based.
The nature of data set [10]: Cmax in Sprague-Dawley rat at 10 mg/kg, iv measured for 1 to 1440 mins by LC-MS/MS analysis. It counts as ADME, organism-based. The conditions noted are these: in vivo, time 1-1440 min.
A short description of data set [11]: Permeability of compound at 50 ug/ml incubated for 18 hrs by PAMPA. It counts as ADME. The settings on record: dose 50 µg/ml, read-out: permeability. (In general: In PAMPA a lipid-coated filter parts donor from acceptor wells.)
A short description of data set [12]: AUC (0 to t) in plasma of ICR mouse at 10 mg/kg, po measured for 10 to 480 mins by spectroscopy. It counts as ADME, organism-based. The settings on record: time 10-480 min.
In a further data set the test system is Mus musculus. The experiment in a line: Cognitive enhancing effect in Amyloid beta (1 to 42)-treated ICR mouse assessed as shorter arrival time at 10 mg/kg, po administered daily measured after 7 to 12 days by Morris water maze test. It counts as functional, organism-based. The settings on record: time 7-12 day.

The structures appear in SMILES notation. Activity calls are given as the source filed them.

Cholinesterase, sequence (P06276 whole entry): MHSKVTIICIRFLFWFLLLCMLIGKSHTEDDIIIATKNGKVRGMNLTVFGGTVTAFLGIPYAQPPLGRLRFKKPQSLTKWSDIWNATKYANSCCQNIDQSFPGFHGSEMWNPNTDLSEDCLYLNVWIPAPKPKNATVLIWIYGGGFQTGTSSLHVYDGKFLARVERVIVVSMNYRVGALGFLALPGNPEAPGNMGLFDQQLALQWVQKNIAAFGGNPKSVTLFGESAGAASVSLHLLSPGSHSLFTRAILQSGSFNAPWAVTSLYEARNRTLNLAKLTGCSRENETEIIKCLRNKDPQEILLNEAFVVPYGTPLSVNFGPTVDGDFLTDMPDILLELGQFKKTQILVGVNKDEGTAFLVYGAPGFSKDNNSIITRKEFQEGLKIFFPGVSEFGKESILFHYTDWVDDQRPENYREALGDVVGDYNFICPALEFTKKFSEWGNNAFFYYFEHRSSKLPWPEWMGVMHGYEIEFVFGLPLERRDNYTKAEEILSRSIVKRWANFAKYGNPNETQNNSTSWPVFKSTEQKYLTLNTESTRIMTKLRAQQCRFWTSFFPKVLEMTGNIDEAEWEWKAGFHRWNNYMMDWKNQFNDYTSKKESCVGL

As a reminder, the inhibition is the share of the control response that was lost under treatment. What is called AUC(0-t) is exposure summed from dosing to a finite time, without extrapolation to infinity. Lower therefore signals low exposure. What is called half-life is the time needed for the level to fall by half in the phase considered. A lower half-life goes with rapid decline. One may read the bioavailability as the share of a dose that reaches the circulation, judged against a reference dose that is usually intravenous. The term Tmax denotes the time at which the peak concentration occurs. By Cmax is commonly meant the peak of the concentration-time curve. For the compound `Nc1nonc1-c1nc2ccccc2n1CC(=O)Nc1ccc(CCN2CCOCC2)cc1`, the inhibition entry on Cholinesterase is “Active”. Further, the viability at 100 µM with PC-12 [1] amounted to 75.5%. Besides, the Activity result in [2] is “Non-Toxic”; with PC-12 [3], “Dose-Dependent Effect”; with SH-SY5Y it was “Dose-Dependent Effect”. For the same compound, the result in the data set on HT-22 and in the data set on Mus musculus was Active. In addition, the metabolised at 1 h, 2 µM in data set [4] was less than 15%. Besides, on hERG (KCNH2), the inhibition at 10 µM was determined as 25.5%. The figures for the exposure AUC(0-t) in [5] and in data set [12] were 1440 ng·h/mL and 826 ng·h/mL, respectively. In addition, the half-life in data set [6] was 6.77 h; in [8], 3.29 h. This compound also returned a bioavailability in [7] of 48.2%. The Tmax in data set [9] was 3 min. In addition, the concentration in data set [10] peaked (Cmax) at 4610 ng/mL. Also, the Papp at 18 h, 50 ug/ml in [11] came to 6.64 ×10⁻⁶ cm/s.

The record behind these values is ChEMBL document CHEMBL5506004, “Optimizing drug-like properties of selective butyrylcholinesterase inhibitors for cognitive improvement: Enhancing aqueous solubility by disrupting molecular plane” (Eur J Med Chem, 2024).
